From PMC6992764 (Nature Communications, 2020)

Columns and labels:
[1] = system: monocyte (CD11b+Gr-1-Ly-6C+) chemotaxis to CCL2; experiment: Flow cytometry-based chemotaxis assay; type: cell-based, mice; settings: 20 µM wortmannin pre-incubation
Experimental: Bone marrow cells were mechanically flushed from the femurs and tibias of Frount-floxed mice and FROUNT-cKO mice. After incubation in ammonium chloride to lyse red blood cells, nucleated cells were incubated with the following antibodies: PE-conjugated Gr-1 (clone RB6-8C5, dilution 1:400, Cat 553128), Pacific blue-conjugated Ly-6C ([…], dilution 1:400, Cat 128014), and allophycocyanin-conjugated CD11b (clone M1/70, dilution 1:400, Cat 101212). Cells were washed and adjusted to 2 × 10^7 cells mL^−1 in chemotaxis buffer. Cells were pre-incubated with 20 μM wortmannin before the assay as necessary. The chemokines murine CCL2 (Peprotech) were added to the lower chamber and 25 μL of cell suspension was added to the upper chamber of a 5-μm pore-sized chemoTX plate. After incubation at 37 °C under 5% CO2 atmosphere for 90 min, migrated cells were collected and cell populations were determined by surface expression of stained antibody in each population using a Gallios flow cytometer (Beckman coulter). Data are expressed as a migration index (number of migrated cells in the presence of chemoattractant divided by the cell number in the absence of chemokine).

peritoneal macrophages = experiment: CCL2-induced pseudopodia protrusion of macrophages; type: cell-based, mice; settings: 25 µM, 1 h pre-incubation
Experimental: Peritoneal macrophages were isolated from mice, seeded in the 8-well glass-based dishes (Life Technologies) and incubated overnight at 37 °C to allow the cells to adhere. After serum starvation for 6 h, cells were stimulated with chemokine at a concentration of 100 ng mL^–1, then fixed with 4% paraformaldehyde (Wako) and permeabilized with 0.1% Triton X-100 (Wako) in PBS, followed by staining with phalloidin conjugated with Alexa Fluor 594 (Life Technologies). […] Tumor macrophages were isolated from collagenase digestion of tumor tissue as attached cells by washing non-adherent cells away and further culturing them in DMEM containing 10 nM M-CSF (BD Biosciences) and 10% serum. After co-culture with LLC tumor cells, confocal images were obtained using an SP5 confocal microscope (Leica Microsystems). Cells were classified as lamellipodial/round-shaped or filopodial based on their morphology and the ratio of each type in the visual field determined.

LLC tumor cells [2] = system: LLC tumor cells
LLC tumor cells [3] = experiment: LLC tumor cell growth (WST-1 assay); type: cell-based; settings: 48 h
Experimental: (§1) To evaluate the effects of compounds on cell growth, cells were incubated with inhibitors for 48 h, then WST-1 (Dojindo) was added to the culture for the final 30 min. An Envision instrument (PerkinElmer) was used to measure the absorbance of each well at 450 nm versus a 650-nm reference to detect the amount of formazan produced from WST-1 by mitochondrial dehydrogenases in viable cells.

B16 tumor cells [4] = experiment: B16 tumor cell growth (WST-1 assay); type: cell-based; settings: B16, 48 h
Experimental: as §1

B16 tumor cells [5] = system: B16 tumor cells
ALDH = ALDH activity assay (ALDEFLUOR); type: cell-based, human; settings: THP-1 cells, 33 µM, 30 min
Experimental: THP-1 cells were incubated for 30 min with medium containing DMSO or inhibitors at the concentration of 33 μM then washed and incubated with ALDEFLUOR reagent ([…] Technologies) in assay buffer according to the manufacturer’s instruction. Fluorescence derived from substrate metabolized by cellular ALDH were measured by Gallios cytometer.

THP-1 cells = experiment: Chemotaxis inhibition assay (chemoTX chamber, CCL2); type: cell-based, human; settings: towards CCL2, 90 min
Experimental: Chemotaxis was measured in a 96-well chemoTX chemotaxis chamber with a polycarbonate filter (5-μm pore size) (Neuro probe). Human CCL2 (R&D Systems) was added to the lower chamber of the plate and the cells were added to the upper chamber. After incubation at 37 °C and 5% CO2 for 90 min, the filter was removed and the number of migrated cells in the lower chamber was counted using a cell counting kit F (Dojindo). Data are expressed as migration efficiency (percentage of the maximal migration).

FROUNT-CCR2 interaction = target: T1, FROUNT-CCR2 interaction (Homo sapiens, UniProt Q9BW27); experiment: HTRF FROUNT-CCR2 interaction assay; type: binding; settings: HTRF
T1 construct: GST-fused FROUNT (FNT-C)
T1 sequence (Q9BW27 500-656 limits assumed): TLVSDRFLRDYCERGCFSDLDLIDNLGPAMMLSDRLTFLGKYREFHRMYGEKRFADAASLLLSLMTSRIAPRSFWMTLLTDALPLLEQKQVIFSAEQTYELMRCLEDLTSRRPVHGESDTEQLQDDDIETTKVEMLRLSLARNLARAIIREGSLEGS

[6] = target: T2, Full-length FROUNT protein (Homo sapiens, UniProt Q9BW27); experiment: Surface plasmon resonance binding to FROUNT; settings: SPR, concentration-dependent
T2 construct: made in house
T2 sequence (Q9BW27 1-656): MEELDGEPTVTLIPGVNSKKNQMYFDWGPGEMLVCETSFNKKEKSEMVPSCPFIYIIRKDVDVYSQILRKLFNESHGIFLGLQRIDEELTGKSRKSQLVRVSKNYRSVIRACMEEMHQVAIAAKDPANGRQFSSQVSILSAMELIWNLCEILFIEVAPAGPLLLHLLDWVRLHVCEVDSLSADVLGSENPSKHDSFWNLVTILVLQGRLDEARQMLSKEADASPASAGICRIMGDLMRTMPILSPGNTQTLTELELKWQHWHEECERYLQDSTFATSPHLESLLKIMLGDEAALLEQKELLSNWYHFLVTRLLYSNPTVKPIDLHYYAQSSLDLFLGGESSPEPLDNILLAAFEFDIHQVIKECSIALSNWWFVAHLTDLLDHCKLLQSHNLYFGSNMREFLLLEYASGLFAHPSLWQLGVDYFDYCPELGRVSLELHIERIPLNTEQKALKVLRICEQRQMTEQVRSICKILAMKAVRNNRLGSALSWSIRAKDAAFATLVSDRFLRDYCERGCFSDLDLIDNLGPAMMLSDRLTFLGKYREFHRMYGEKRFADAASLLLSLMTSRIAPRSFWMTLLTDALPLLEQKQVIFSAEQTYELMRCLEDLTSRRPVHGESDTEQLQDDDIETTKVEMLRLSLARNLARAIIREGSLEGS
Experimental: Interactions between FROUNT and library compounds were analyzed by surface plasmon resonance using a Biacore T100 (GE Healthcare). Full-length FROUNT protein or the FROUNT-binding region of CCR2 was immobilized on the CM5 sensor chip[56]. […] The resonance unit (RU) was measured during the binding and washing periods, and the binding kinetics were analyzed. Solvent correction with DMSO was performed using Biacore T100 evaluation software.

[7] = target: T3, CRBD of FROUNT (a.a. 532-656) bearing the L538E/P612S mutations (Homo sapiens, UniProt Q9BW27, L538E/P612S); experiment: NMR titration (1H-15N HSQC) of CRBD of FROUNT; type: binding; settings: 12.5-50 µM compound, 50 µM CRBD
T3 construct: 50 µM CRBD of FROUNT (a.a. 532–656) bearing the L538E/P612S mutations or its mutant (C603S); made in house
T3 sequence (Q9BW27 532-656 L538E/P612S): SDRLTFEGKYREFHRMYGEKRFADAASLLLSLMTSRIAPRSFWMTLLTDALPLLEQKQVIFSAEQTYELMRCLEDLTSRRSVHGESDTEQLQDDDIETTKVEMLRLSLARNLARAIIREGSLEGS
Experimental: All ^1H–^15N heteronuclear single quantum correlation (HSQC) NMR spectra were measured at 25 °C on a Bruker 600-MHz AVANCE III spectrometer with a cryogenic probe. […] The assignments of the backbone ^1H^N and ^15N NMR signals of CRBD were performed, based on the previous paper. […] Combined chemical shift differences Δδ was calculated by Δδ = [(ΔδHN)^2 + (ΔδN/6.5)^2]^1/2, where ΔδHN and ΔδN are the chemical shift differences for ^1H^N and ^15N, respectively.

Structure (SMILES)	viability (LLC tumor cells [2])	in vitro growth (LLC tumor cells [3])	in vitro growth (B16 tumor cells [4])	viability (B16 tumor cells [5])	further results
COC[C@H]1OC(=O)c2coc3c2[C@@]1(C)C1=C(C3=O)[C@@H]2CCC(=O)[C@@]2(C)C[C@H]1OC(C)=O [wortmannin]	–	–	–	–	migration in response to CCL2 stimulation [1]: inhibited; CCL2-induced pseudopodia protrusion (peritoneal macrophages): inhibition
O=c1[nH]cc(F)c(=O)[nH]1 [5FU]	affected	affected	affected	affected	–
NC(=O)Nc1sc(-c2ccc(F)cc2)cc1C(N)=O [IKK-IV]	affected	affected	affected	affected	–
N#CN [cyanamide]	–	–	–	–	ALDH inhibition activity (ALDH): more potently than DSF; cellular chemotaxis (THP-1 cells): did not block; inhibition of FROUNT-CCR2 interaction (FROUNT-CCR2 interaction): did not block
CCN(CC)C(=S)S [DDC, sodium diethyldithiocarbamate]	–	–	–	–	binding to FROUNT protein [6]: did not bind; chemical shift perturbations in CRBD [7]: no significant perturbation
